In ChEMBL document CHEMBL6177981, “Bardoxolone Derivatives as Novel Pseudo-Natural Necroptosis Inhibitors by Destabilizing HSP90 Client Proteins” (J Med Chem, 2025) one finds EC50 and Activity data, which are given here for 27 compounds.

In general, EC50 refers to the concentration giving half of the maximal effect.

Holding throughout (type): functional, cell-based
For one test, the system named is HT-29. Put plainly: Anti-necroptotic activity in TSZ-induced human HT-29 cells assessed as increase in cell viability preincubated with Z-VAD-FMK and SM164 for 30 mins followed by TNFalpha stimulation for 12 hrs and measured after compound addition by CellTiter-Lumi luminescent cell viability assay.
The test system of a further test is L929. Kind of test: Anti-necroptotic activity in TZ-induced mouse L929 cells assessed as increase in cell viability preincubated with Z-VAD-FMK followed by mTNFalpha stimulation for 4 hrs and measured after compound addition by CellTiter-Lumi luminescent cell viability assay.
A further test concerns RAW264.7. Kind of test: Anti-necroptotic activity in LZ-induced mouse RAW264.7 cells assessed as increase in cell viability preincubated with compound followed by LPS and Z-VAD-FMK stimulation and measured after 16 hrs by CellTiter-Lumi luminescent cell viability assay.

Some results are limits rather than exact numbers.

As for `CC1(C)CC[C@]2(C(=O)N3CCC(c4ccccc4)C3)CC[C@]3(C)[C@H](C(=O)C=C4[C@@]5(C)C=C(C#N)C(=O)C(C)(C)[C@@H]5CC[C@]43C)[C@@H]2C1` (some centres not stated), the results for the concentration for a half-maximal effect (EC50) in the test with HT-29 and in the test on L929 were 3.81 µM and above 10 µM, respectively.
In the case of `CC1(C)CC[C@]2(C(=O)n3ncc4ccccc43)CC[C@]3(C)[C@H](C(=O)C=C4[C@@]5(C)C=C(C#N)C(=O)C(C)(C)[C@@H]5CC[C@]43C)[C@@H]2C1`, the half-maximal effective concentration (EC50) in the test on HT-29 and in the test with L929 was above 10 µM each time.
As to `CC1(C)CC[C@]2(C(=O)Nc3ccc4scnc4c3)CC[C@]3(C)[C@H](C(=O)C=C4[C@@]5(C)C=C(C#N)C(=O)C(C)(C)[C@@H]5CC[C@]43C)[C@@H]2C1`, the concentration for a half-maximal effect (EC50) in the test with HT-29 was 1.38 µM; in the test on L929, 4.01 µM. Besides, in the test with RAW264.7, the Activity result is “Dose-dependent-effect”.
As to `CC1(C)CC[C@]2(C(=O)O)CC[C@]3(C)C(=CC[C@@H]4[C@@]5(C)CC[C@H](O)C(C)(C)[C@@H]5CC[C@]43C)[C@@H]2C1` [OLEANOLIC_ACID], the half-maximal effective concentration (EC50) in the test on HT-29 and in the test on L929 was above 10 µM in each case.
Take `CC1(C)CC[C@]2(C(=O)N3CCC(c4ccccc4)CC3)CC[C@]3(C)[C@H](C(=O)C=C4[C@@]5(C)C=C(C#N)C(=O)C(C)(C)[C@@H]5CC[C@]43C)[C@@H]2C1`: the EC50 in the test with HT-29 is 5.8 µM; with L929, above 10 µM.
On the same counts, the results for `Cn1c(NC(=O)[C@]23CCC(C)(C)C[C@H]2[C@H]2C(=O)C=C4[C@@]5(C)C=C(C#N)C(=O)C(C)(C)[C@@H]5CC[C@@]4(C)[C@]2(C)CC3)nc2ccccc21` are 3.97 µM and above 10 µM.
Take `CC1(C)CC[C@]2(C(=O)Nc3ccc4[nH]ccc4c3)CC[C@]3(C)[C@H](C(=O)C=C4[C@@]5(C)C=C(C#N)C(=O)C(C)(C)[C@@H]5CC[C@]43C)[C@@H]2C1`: the results for the concentration giving a half-maximal response (EC50) in the test on HT-29 and in the test with L929 were 4.08 µM and above 10 µM, respectively.
Turning to `CC1(C)CC[C@]2(C(=O)Nc3ccc4sncc4c3)CC[C@]3(C)[C@H](C(=O)C=C4[C@@]5(C)C=C(C#N)C(=O)C(C)(C)[C@@H]5CC[C@]43C)[C@@H]2C1`, the concentration giving a half-maximal response (EC50) is 2.35 µM with HT-29 and above 10 µM in the test with L929.
Regarding `CC1(C)CC[C@]2(C(=O)NC3(c4ccccc4)CC3)CC[C@]3(C)[C@H](C(=O)C=C4[C@@]5(C)C=C(C#N)C(=O)C(C)(C)[C@@H]5CC[C@]43C)[C@@H]2C1`, the 50% effective concentration (EC50) with HT-29 was 2.09 µM; in the test on L929 it was 4.8 µM. In the test with RAW264.7, the Activity result was “Dose-dependent-effect”.
For `CC1(C)CC[C@]2(C(=O)N3Cc4ccccc4C3)CC[C@]3(C)[C@H](C(=O)C=C4[C@@]5(C)C=C(C#N)C(=O)C(C)(C)[C@@H]5CC[C@]43C)[C@@H]2C1`, the figures for the 50% effective concentration (EC50) in the test on HT-29 and with L929 were 1.65 µM and above 10 µM, respectively.
In the same order, the values of `CC1(C)CC[C@]2(C(=O)Nc3nc4ccccc4s3)CC[C@]3(C)[C@H](C(=O)C=C4[C@@]5(C)C=C(C#N)C(=O)C(C)(C)[C@@H]5CC[C@]43C)[C@@H]2C1` are 3.8 µM and above 10 µM.
As to `COC(=O)[C@]12CCC(C)(C)C[C@H]1[C@H]1C(=O)C=C3[C@@]4(C)C5C(C(=O)C(C)(C)[C@@H]4CC[C@@]3(C)[C@]1(C)CC2)N5CC#N` (some centres not stated), the half-maximal effective concentration (EC50) with HT-29 and in the test on L929 was above 10 µM each time.
Take `CC1(C)CC[C@]2(C(=O)Nc3ccc4sccc4c3)CC[C@]3(C)[C@H](C(=O)C=C4[C@@]5(C)C=C(C#N)C(=O)C(C)(C)[C@@H]5CC[C@]43C)[C@@H]2C1`: the EC50 in the test on HT-29 was 4.85 µM; in the test on L929, above 10 µM.
On the same counts, the results for `CC1(C)CC[C@]2(C(=O)Nc3ccc4c(c3)OCO4)CC[C@]3(C)[C@H](C(=O)C=C4[C@@]5(C)C=C(C#N)C(=O)C(C)(C)[C@@H]5CC[C@]43C)[C@@H]2C1` are 0.89 µM and above 10 µM.
On to `CC1(C)CC[C@]2(C(=O)N3CCc4ccccc43)CC[C@]3(C)[C@H](C(=O)C=C4[C@@]5(C)C=C(C#N)C(=O)C(C)(C)[C@@H]5CC[C@]43C)[C@@H]2C1`, for which the 50% effective concentration (EC50) with HT-29 and with L929 was above 10 µM throughout.
With `CC1(C)CC[C@]2(C(=O)Nc3ccc4oncc4c3)CC[C@]3(C)[C@H](C(=O)C=C4[C@@]5(C)C=C(C#N)C(=O)C(C)(C)[C@@H]5CC[C@]43C)[C@@H]2C1`, the half-maximal effective concentration (EC50) with HT-29 was 3.28 µM; with L929, above 10 µM.
Turning to `COC(=O)[C@]12CCC(C)(C)C[C@H]1[C@H]1C(=O)C=C3[C@@]4(C)C5NC5C(=O)C(C)(C)[C@@H]4CC[C@@]3(C)[C@]1(C)CC2` (some centres not stated), the EC50 in the test on HT-29 and in the test on L929 was above 10 µM each time.
`CC1(C)CC[C@]2(C(=O)Nc3cnc4ccccc4n3)CC[C@]3(C)[C@H](C(=O)C=C4[C@@]5(C)C=C(C#N)C(=O)C(C)(C)[C@@H]5CC[C@]43C)[C@@H]2C1`: the figures for the concentration giving a half-maximal response (EC50) in the test on HT-29 and in the test with L929 were 2.39 µM and above 10 µM, respectively.
As to `CC1(C)CC[C@]2(C(=O)Nc3nsc4ccccc34)CC[C@]3(C)[C@H](C(=O)C=C4[C@@]5(C)C=C(C#N)C(=O)C(C)(C)[C@@H]5CC[C@]43C)[C@@H]2C1`, the EC50 in the test on HT-29 is 3.96 µM; in the test on L929, above 10 µM.
As to `CC1(C)CC[C@]2(C(=O)Nc3ccc4ncoc4c3)CC[C@]3(C)[C@H](C(=O)C=C4[C@@]5(C)C=C(C#N)C(=O)C(C)(C)[C@@H]5CC[C@]43C)[C@@H]2C1`, the EC50 worked out at 2 µM with HT-29 and 2.84 µM in the test with L929. The Activity entry in the test with RAW264.7 is “Dose-dependent-effect”.
As for `CC1(C)CC[C@]2(C(=O)O)CC[C@]3(C)[C@H](C(=O)C=C4[C@@]5(C)C=C(C(N)=O)C(=O)C(C)(C)[C@@H]5CC[C@]43C)[C@@H]2C1`, the EC50 is 2.2 µM in the test with HT-29 and above 10 µM with L929.
In the case of `CC1(C)CC[C@]2(C(=O)Nc3ccc4occc4c3)CC[C@]3(C)[C@H](C(=O)C=C4[C@@]5(C)C=C(C#N)C(=O)C(C)(C)[C@@H]5CC[C@]43C)[C@@H]2C1`, the EC50 in the test with HT-29 is 1.32 µM; in the test on L929, above 10 µM.
For the compound `CC1(C)CC[C@]2(C(=O)Nc3ccc4ncsc4c3)CC[C@]3(C)[C@H](C(=O)C=C4[C@@]5(C)C=C(C#N)C(=O)C(C)(C)[C@@H]5CC[C@]43C)[C@@H]2C1`, the EC50 with HT-29 is 3.56 µM; with L929, above 10 µM.
In the same order, the values of `CC1(C)CC[C@]2(C(=O)n3nnc4ccccc43)CC[C@]3(C)[C@H](C(=O)C=C4[C@@]5(C)C=C(C#N)C(=O)C(C)(C)[C@@H]5CC[C@]43C)[C@@H]2C1` are 9.98 µM and above 10 µM.
For the compound `CC1(C)CC[C@]2(C(=O)Nc3ccc4ccccc4c3)CC[C@]3(C)[C@H](C(=O)C=C4[C@@]5(C)C=C(C#N)C(=O)C(C)(C)[C@@H]5CC[C@]43C)[C@@H]2C1`, the EC50 was 9.56 µM in the test on HT-29 and above 10 µM in the test with L929.
`CC1(C)CC[C@]2(C(=O)O)[C@H](O)C[C@]3(C)C(=CC[C@@H]4[C@@]5(C)CC[C@H](O)C(C)(C)[C@@H]5CC[C@]43C)[C@@H]2C1`: the half-maximal effective concentration (EC50) in the test on HT-29 and with L929 was above 10 µM each time.
`CC1(C)CC[C@]2(C(=O)n3cnc4ccccc43)CC[C@]3(C)[C@H](C(=O)C=C4[C@@]5(C)C=C(C#N)C(=O)C(C)(C)[C@@H]5CC[C@]43C)[C@@H]2C1`: the EC50 in the test on HT-29 was 2.35 µM; in the test with L929, above 10 µM.
